Tests used:
[1] = biological target: HA-GST-Rheb (GTP-γ-S loaded) activating mTORC1 (Homo sapiens (Human), UniProt Q15382); assay: Rheb-dependent in vitro kinase assay (Rheb-IVK; LanthaScreen or Western readout); assay type: biochemical; details: Rheb-dependent in vitro kinase assay; read-out: IVK IC50
Rheb = Rheb (Homo sapiens (Human), UniProt Q15382); assay: Affinity Selection Mass Spectrometry (ASMS); assay type: binding; details: affinity (R3/R0) in Affinity Selection Mass Spectrometry assay
Rheb, sequence (Q15382 1-169 limits assumed): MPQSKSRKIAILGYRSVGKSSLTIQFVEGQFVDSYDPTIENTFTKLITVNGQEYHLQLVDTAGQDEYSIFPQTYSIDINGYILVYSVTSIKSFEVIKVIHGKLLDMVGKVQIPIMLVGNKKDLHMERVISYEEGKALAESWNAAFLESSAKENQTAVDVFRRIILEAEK
Outline: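 Human Rheb (60 μM) with GDP (180 μM) and each compound at 2 μM, protein-plus versus protein-minus, incubated 30 min at room temperature, then washed by 10 kDa ultrafiltration. Retained ligand was released with MeCN and detected by UPLC-Q-TOF MS.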

HA-GST-Rheb (GTP-γ-S loaded) activating mTORC1, sequence (Q15382 1-181): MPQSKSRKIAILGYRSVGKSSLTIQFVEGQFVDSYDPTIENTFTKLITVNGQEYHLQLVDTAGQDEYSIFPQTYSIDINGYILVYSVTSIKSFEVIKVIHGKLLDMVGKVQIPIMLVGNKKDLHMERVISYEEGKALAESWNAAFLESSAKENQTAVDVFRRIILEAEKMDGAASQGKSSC

Row | Compound | IC50 [1] [µM] | ASMS (R3/R0) (Rheb)
1 | CN1CCC(NC(=O)c2cc3c(Sc4ccc(Cl)cc4Cl)cc(Cl)cc3[nH]2)CC1 [I-114] | > 100 | B (an affinity (R3/R0) between 100% and 20%)
2 | CN1CCC(NC(=O)c2ccc(Cn3c(C(=O)O)cc4c(Br)cc(Oc5ccccc5)cc43)cc2)C1 (centres unmarked) [I-53] | > 100 | B (an affinity (R3/R0) between 100% and 20%)
3 | CN1CCC(CCNC(=O)c2cc3c(Br)cc(Sc4ccc(Cl)c(Cl)c4)cc3[nH]2)CC1 [I-97] | > 100 | B (an affinity (R3/R0) between 100% and 20%)
4 | O=C(c1cc2c(Sc3ccc(Cl)cc3Cl)cc(Cl)cc2[nH]1)N1CCNCC1 [I-105, (6-chloro-4-(2,4-dichlorophenylthio)-1H-indol-2-yl)(piperazin-1-yl)methanone] | 10 to 100 | B (an affinity (R3/R0) between 100% and 20%)
5 | OCc1nc2c(OC[C@H]3CNCC[C@H]3O)c(Cl)c(Cl)cc2[nH]1 (racemic) [I-386] | > 100 | C (an affinity (R3/R0)<20%)
6 | O=C(O)c1cc2c(Cl)cc(Sc3ccc(Cl)c(Cl)c3)cc2[nH]1 [I-100, 4-chloro-6-(3,4-dichlorophenylthio)-1H-indole-2-carboxylic acid] | < 10 | B (an affinity (R3/R0) between 100% and 20%)
7 | OCc1cc2c(Cl)cc(Oc3ccccc3)cc2n1Cc1nc[nH]n1 [I-226] | > 100 | C (an affinity (R3/R0)<20%)
8 | O=C(O)c1cc2c(Sc3ccc(Cl)cc3Cl)cc(Cl)cc2n1Cc1ccc(Br)cc1 [I-103] | > 100 | B (an affinity (R3/R0) between 100% and 20%)
9 | O=C(O)c1cc2c(Br)cc(Sc3ccc(Cl)c(Cl)c3)cc2n1Cc1ccc(C(=O)N(CCO)CCO)cc1 [I-50, 1-(4-(bis(2-hydroxyethyl)carbamoyl)benzyl)-4-bromo-6-(3,4-dichlorophenylthio)-1H-indole-2-carboxylic acid] | < 10 | B (an affinity (R3/R0) between 100% and 20%)
10 | OCc1cc2c(Br)cc(OCCc3ccccc3)cc2[nH]1 [I-236, (4-Bromo-6-phenethoxy-1H-indol-2-yl)methanol] | 10 to 100 | B (an affinity (R3/R0) between 100% and 20%)
11 | O=C(O)c1nc2c(OCC3CCCCC3)c(Cl)c(Cl)cc2[nH]1 [I-342, 5,6-dichloro-4-(cyclohexylmethoxy)-1H-benzo[d]imidazole-2-carboxylic acid] | 10 to 100 | B (an affinity (R3/R0) between 100% and 20%)
12 | OCc1cc2c(Oc3ccccc3)cc(Cl)cc2[nH]1 [I-291, (6-Chloro-4-phenoxy-1H-indol-2-yl)methanol] | 10 to 100 | C (an affinity (R3/R0)<20%)
13 | CN1CCN(c2cccc(-c3nc4cc(Cl)c(Cl)cc4[nH]3)c2)CC1 [I-367] | > 100 | B (an affinity (R3/R0) between 100% and 20%)
14 | CN1CCN(c2ccc(NC(=O)c3cc4c(Sc5ccc(Cl)cc5Cl)cc(Cl)cc4[nH]3)cc2C#N)CC1 [I-112, 6-chloro-N-(3-cyano-4-(4-methylpiperazin-1-yl)phenyl)-4-(2,4-dichlorophenylthio)-1H-indole-2-carboxamide] | < 10 | C (an affinity (R3/R0)<20%)
15 | Clc1ccc(Sc2cccc3c2ccn3Cc2ccc(-c3nnn[nH]3)cc2)c(Cl)c1 [I-161, 1-(4-(1H-tetrazol-5-yl)benzyl)-4-(2,4-dichlorophenylthio)-1H-indole] | < 10 | A (an affinity (R3/R0)>100%)
16 | CN1CCC[C@H]1CNC(=O)c1cc2c(Br)cc(Sc3ccc(Cl)c(Cl)c3)cc2[nH]1 [I-89] | > 100 | A (an affinity (R3/R0)>100%)
17 | CN1CCN(C(=O)c2cc3c(Sc4ccc(Cl)cc4)cc(Cl)cc3[nH]2)CC1 [I-90] | > 100 | B (an affinity (R3/R0) between 100% and 20%)
18 | OCc1nc2cc(OCc3ccc(Oc4ccccc4)cc3)c(Cl)c(Cl)c2[nH]1 [I-320, [6,7-dichloro-5-[(4-phenoxyphenyl)methoxy]-1H-benzimidazol-2-yl]methanol] | 10 to 100 | B (an affinity (R3/R0) between 100% and 20%)
19 | Clc1cc2nc(-c3ccncc3)[nH]c2cc1Cl [I-378, 5,6-dichloro-2-(pyridin-4-yl)-1H-benzo[d]imidazole] | 10 to 100 | B (an affinity (R3/R0) between 100% and 20%)
20 | OCc1cc2c(Sc3cccc(OC(F)(F)F)c3)cc(Cl)cc2[nH]1 [I-122, (6-chloro-4-(3-(trifluoromethoxy)phenylthio)-1H-indol-2-yl)methanol] | < 10 | B (an affinity (R3/R0) between 100% and 20%)
21 | CN1CCN(c2ccc(NC(=O)c3cc4c(Sc5ccc(Cl)cc5Cl)cc(Cl)cc4[nH]3)cc2F)CC1 [I-113, 6-chloro-4-(2,4-dichlorophenylthio)-N-(3-fluoro-4-(4-methylpiperazin-1-yl)phenyl)-1H-indole-2-carboxamide] | < 10 | C (an affinity (R3/R0)<20%)
22 | CN1CCC[C@@H]1CNC(=O)c1ccc(-c2nc3cc(Cl)c(Cl)cc3[nH]2)cc1 [I-341] | > 100 | B (an affinity (R3/R0) between 100% and 20%)

Row | Compound | IC50 [1] [µM] | ASMS (R3/R0) (Rheb)
23 | O=C(NC1CCN(Cc2ccccc2)CC1)c1cc2c(Sc3ccc(Cl)cc3Cl)cc(Cl)cc2[nH]1 [I-117] | > 3 | C (an affinity (R3/R0)<20%)
24 | Clc1ccc2[nH]ccc2c1Oc1ccccc1 [I-257, 5-chloro-4-phenoxy-1H-indole] | 10 to 100 | C (an affinity (R3/R0)<20%)
25 | CC(C)(C)OC(=O)c1ccc(Cn2c(C(=O)O)cc3c(Br)cc(Sc4ccc(Cl)c(Cl)c4)cc32)cc1 [I-109, 4-Bromo-1-(4-(tert-butoxycarbonyl)benzyl)-6-(3,4-dichlorophenylthio)-1H-indole-2-carboxylic acid] | 10 to 100 | B (an affinity (R3/R0) between 100% and 20%)
26 | CN1CCN(c2ccc(NC(=O)c3cc4c(Br)cc(Sc5ccc(Cl)c(Cl)c5)cc4[nH]3)cc2)CC1 [I-96, 4-bromo-6-(3,4-dichlorophenylthio)-N-(4-(4-methylpiperazin-1-yl)phenyl)-1H-indole-2-carboxamide] | 10 to 100 | A (an affinity (R3/R0)>100%)
27 | O=C(O)c1cc2c(Sc3ccc(Oc4ccccc4)cc3)cc(Cl)cc2[nH]1 [I-118, 6-chloro-4-(4-phenoxyphenylthio)-1H-indole-2-carboxylic acid] | < 10 | B (an affinity (R3/R0) between 100% and 20%)
28 | O=C(NCC1CCOCC1)c1cc2c(Sc3ccc(Cl)cc3)cc(Cl)cc2[nH]1 [I-143] | > 100 | B (an affinity (R3/R0) between 100% and 20%)
29 | Cn1ccc2c(Sc3ccc(Cl)cc3)cccc21 [I-222] | > 100 | B (an affinity (R3/R0) between 100% and 20%)
30 | OCc1nc2c(OC[C@H]3CCCC[C@@H]3O)c(Cl)c(Cl)cc2[nH]1 (single isomer, unassigned) [I-388] | 10 to 100 | B (an affinity (R3/R0) between 100% and 20%)
31 | CN1CCN(C(=O)c2ccc(Cn3c(C(=O)O)cc4c(Br)cc(Oc5ccccc5)cc43)cc2)CC1 [I-68] | > 3 | C (an affinity (R3/R0)<20%)
32 | Clc1cc2nc(-c3ccnc(-c4ccccc4)c3)[nH]c2cc1Cl [I-368] | > 100 | B (an affinity (R3/R0) between 100% and 20%)
33 | 5,6-dichloro-4-(4-chlorobenzyloxy)-1H-benzo[d]imidazole-2-carboxylic acid [I-330] | > 100 | B (an affinity (R3/R0) between 100% and 20%)
34 | Clc1cc2nc(-c3ccc(-c4ccncc4)cc3)[nH]c2cc1Cl [I-372] | > 100 | A (an affinity (R3/R0)>100%)
35 | OCc1nc2c(OCC3CCCC3O)c(Cl)c(Cl)cc2[nH]1 (centres unmarked) [I-379, 2-((5,6-dichloro-2-(hydroxymethyl)-1H-benzo[d]imidazol-4-yloxy)methyl)cyclopentanol] | > 100 | C (an affinity (R3/R0)<20%)
36 | N#Cc1ccc(Cn2ccc3c(Sc4ccc(Cl)cc4Cl)cccc32)cc1 [I-160] | > 100 | C (an affinity (R3/R0)<20%)
37 | OCc1cc2c(Sc3ccc(Cl)cc3)cc(Cl)cc2[nH]1 [I-187, (6-chloro-4-(4-chlorophenylthio)-1H-indol-2-yl)methanol] | < 10 | B (an affinity (R3/R0) between 100% and 20%)
38 | Cc1ccc(Oc2cc(Cl)cc3[nH]c(C(=O)O)cc23)cc1C(F)(F)F [I-81, 6-chloro-4-(4-methyl-3-(trifluoromethyl)phenoxy)-1H-indole-2-carboxylic acid] | 10 to 100 | B (an affinity (R3/R0) between 100% and 20%)
39 | CN1CCCN(C(=O)c2cc3c(Sc4ccc(Cl)cc4)cc(Cl)cc3[nH]2)CC1 [I-83] | > 100 | B (an affinity (R3/R0) between 100% and 20%)
40 | COC(=O)c1ccc(-c2nc3cc(Cl)c(Cl)cc3[nH]2)cc1 [I-363, methyl 4-(5,6-dichloro-1H-benzo[d]imidazol-2-yl)benzoate] | 10 to 100 | A (an affinity (R3/R0)>100%)
41 | Cc1cc(Sc2ccc(Cl)cc2)c2cc(C(=O)O)[nH]c2c1Br [I-64, 7-bromo-4-(4-chlorophenylthio)-6-methyl-1H-indole-2-carboxylic acid] | 10 to 100 | B (an affinity (R3/R0) between 100% and 20%)
42 | O=C(O)c1cc2c(OCc3ccc(Cl)cc3)cc(Cl)c(Cl)c2[nH]1 [I-60, 6,7-dichloro-4-(4-chlorobenzyloxy)-1H-indole-2-carboxylic acid] | 10 to 100 | B (an affinity (R3/R0) between 100% and 20%)
43 | O=C(O)c1cc2c(-c3ccccc3)cc(Cl)cc2[nH]1 [I-54, 6-chloro-4-phenyl-1H-indole-2-carboxylic acid] | 100 to 300 | C (an affinity (R3/R0)<20%)
